Legend:
enterovirus type 71 = assay: Neutralization test; type: cell-based, enterovirus 71/Tw/2231/98; conditions: concentration of 10 mg/ml; RD cells, crystal violet OD570nm
Experimental: In this embodiment, enterovirus 71/Tw/2231/98 obtained from Virology Lab of Chang Gung Memorial Hospital is diluted with fetal bovine serum free culture medium. Culture the RD cells in DMEM containing 10% fetal bovine serum. When the cells are 90% cultured, wash with 1×PBC once and add the aforesaid diluted virus fluid into the culture medium. Place the medium in the 5% CO2, 35° C. incubator for inoculation for one hour and then add DMEM containing 2% fetal bovine serum. Place the medium in 5% CO2, 35° C. incubator. When over 95% of the cells become round and drop off, collect the supernatant. After centrifuge, freezing and thawing, refrigerate the virus supernatant under −80° C.
In this embodiment, cultured cells from Embodiment 3 are cultured in 96-well plate. After mixing fixed-quantity of virus fluid with the tested compound, add in culture medium for inoculation for one hour, and then add in DMEM containing 2% fetal bovine serum. Place the medium in 5% CO2, 35° C. incubator for 3–4 days. To read the test result, add 5% formalin to fixate for 1–2 hours and dye with 0.1% crystal violet for 2–3 minutes. Rinse with water and measure OD570nm values.

RD cells = assay: Toxicity test; type: cell-based; conditions: 3-4 days, crystal violet OD570nm
Experimental: In this embodiment, rhabdomyosarcoma (RD) cells obtained from the Virology Lab of Chang Gung Memorial Hospital are cultured in DMEM (Gibco) containing 10% fetal bovine serum and placed in 5% CO2, 37° C. incubator. In successive culture, the cells are rinsed twice with 1× PBS and then added with proper amount of 0.25% trypsin-EDTA (Gibco) for cell treatment. After the cells drop off from the surface of culture dish, add DMBM medium containing 10% fetal bovine serum to disperse the cells evenly in the culture dishes. Place the dishes into 5% CO2, 37° C. incubator to continue the culturing.
In this embodiment, cultured cells from Embodiment 3 are cultured in 96-well plate. After the cells are mixed with the tested compound for one hour, add DMEM containing 2% fetal bovine serum, and place the medium in 5% CO2, 35° C. incubator for 3–4 days. To read the test result, add 5% formalin to fixate for 1–2 hours and dye with 0.1% crystal violet (J. T. Baker) for 2–3 minutes. Rinse with water and measure OD570nm values.

| Compound | inhibitory effect on enterovirus type 71 (enterovirus type 71) | LC50 (RD cells) |
| --- | --- | --- |
| C[n+]1ccn(CC(O)Cn2cc[n+](C)c2)c1.[Br-].[Br-] [dibromo 1,1′-glyceryl-bis (3-methyl-1H-imidazole)] | 32% | 8400 µg/mL |
| OC(C[n+]1ccccc1)C[n+]1ccccc1.[Br-].[Br-] [dibromo 1,1′-glyceryl-bispyridine] | 30% | 9200 µg/mL |
